The values that follow come from PubChem BioAssay (NCI).

Some test systems named below: UO-31 renal; HOP-92 NSCLC; OVCAR-3 ovarian; HL-60(TB) leukemia; OVCAR-8 ovarian; HS 578T breast; HCC-2998 colon; A549 NSCLC; EKVX NSCLC; ACHN renal; UACC-62 melanoma; HT29 colon; SK-OV-3 ovarian; BT-549 breast; MCF7 breast; NCI-H23 lung; MDA-N; NCI-H226 lung; SF-539 CNS; LXFL 529 NSCLC.
Experiment in all cases: inhibition of tumour cell growth, NCI panel, 48 h

Each structure is given as a SMILES string.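 Tested at 5 concentrations; 48 h exposure; 96-well plates; endpoints linearly interpolated, else capped at highest concentration. TGI: total growth inhibition.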

`CCCCc1ccc(N=C(N)N)cc1`: the TGI in the assay on UO-31 renal is greater than 100 µM; in the assay on HOP-92 NSCLC, greater than 100 µM; in the assay with OVCAR-3 ovarian, greater than 100 µM; with HL-60(TB) leukemia, 73.6 µM; with OVCAR-8 ovarian, greater than 100 µM; with HS 578T breast it was greater than 100 µM. The TGI with HCC-2998 colon is 30.4 µM; with A549 NSCLC, greater than 100 µM; with EKVX NSCLC it was greater than 100 µM; in the assay with ACHN renal it was greater than 100 µM; in the assay on UACC-62 melanoma, greater than 100 µM; in the assay with HT29 colon, 93.5 µM. Also, the TGI was greater than 100 µM in the assay on SK-OV-3 ovarian; 90.7 µM in the assay on BT-549 breast; 46.3 µM in the assay on MCF7 breast; greater than 100 µM in the assay on NCI-H23 lung; 67 µM with MDA-N; 91.5 µM with NCI-H226 lung.
Take `Cc1c2ccccc2c(C2C3C(=O)N(c4ccc(Br)cc4)C(=O)C3ON2C(C(N)=O)c2ccccc2)c2ccccc12` (stereo unspecified): the TGI in the assay on SF-539 CNS worked out at 17.7 µM; in the assay with UO-31 renal it was 34.6 µM; in the assay with HOP-92 NSCLC, 39.4 µM; in the assay on OVCAR-3 ovarian, 12.2 µM; with HL-60(TB) leukemia it was 14 µM; in the assay on OVCAR-8 ovarian it was 48 µM. Further, the TGI in the assay on HCC-2998 colon is 26.6 µM; with A549 NSCLC, 14.1 µM; in the assay on EKVX NSCLC, 31.7 µM; in the assay on ACHN renal it was 17.3 µM; in the assay on UACC-62 melanoma it was 40.4 µM; with HT29 colon, 7.35 µM. The TGI in the assay with SK-OV-3 ovarian came to 46 µM; in the assay with BT-549 breast, 43.4 µM; with MCF7 breast it was 24.4 µM; in the assay with NCI-H23 lung, 26.9 µM; with MDA-N, 35.1 µM; with NCI-H226 lung, 30 µM.
As to `COC1/C=C(C)/C=C/C(C)/C=C/C(=O)OC(/C(C)=C/C=C(\C)CNC(=O)[C@H](CO)NC=O)C(C)/C=C/C=C/C(OC)CC/C=C(C)/C=C/C1` (stereo partly specified), the TGI with SF-539 CNS was greater than 0.257 µM; in the assay on UO-31 renal it was greater than 0.735 µM; in the assay on HOP-92 NSCLC, greater than 0.267 µM; in the assay on OVCAR-3 ovarian it was greater than 0.461 µM; in the assay with HL-60(TB) leukemia it was 0.0957 µM; in the assay with OVCAR-8 ovarian, greater than 1 µM. Further, the TGI in the assay with HS 578T breast was greater than 1 µM; with A549 NSCLC, greater than 1 µM; in the assay on EKVX NSCLC, greater than 1 µM; with ACHN renal it was greater than 1 µM; in the assay with UACC-62 melanoma, 0.0553 µM; with HT29 colon, greater than 1 µM. Besides, the TGI with SK-OV-3 ovarian is greater than 1 µM; in the assay with BT-549 breast it was greater than 1 µM; with MCF7 breast, greater than 1 µM; in the assay with NCI-H23 lung, greater than 0.859 µM.
For the compound `C[C@@H]1C[C@H]2[C@@H]3CCC4=CC(=O)C=C[C@]4(C)[C@@]3(F)[C@@H](O)C[C@]2(C)[C@@]1(O)C(=O)CO`, the TGI in the assay with UO-31 renal, in the assay with HOP-92 NSCLC, in the assay on OVCAR-3 ovarian, in the assay on HL-60(TB) leukemia, in the assay with OVCAR-8 ovarian and with A549 NSCLC was greater than 100 µM throughout. For the same compound, the TGI with EKVX NSCLC, in the assay on ACHN renal, in the assay with UACC-62 melanoma, in the assay on HT29 colon, in the assay with LXFL 529 NSCLC and in the assay on SK-OV-3 ovarian was greater than 100 µM throughout. The TGI in the assay on NCI-H23 lung and with NCI-H226 lung was greater than 100 µM each time.
On to `CC(C)(C)[Si](OC1CCOC1=O)(c1ccccc1)c1ccccc1` (stereo unspecified), for which the TGI in the assay on SF-539 CNS was 72.3 µM; in the assay on UO-31 renal it was greater than 100 µM; in the assay with HOP-92 NSCLC, greater than 10 µM; in the assay on OVCAR-3 ovarian it was 27.1 µM; with HL-60(TB) leukemia it was greater than 100 µM; with OVCAR-8 ovarian it was 70.9 µM. Moreover, the TGI in the assay with HCC-2998 colon was 47 µM; with A549 NSCLC, 62.7 µM; in the assay on EKVX NSCLC, greater than 100 µM; in the assay on ACHN renal, 99.6 µM; in the assay on UACC-62 melanoma, 29.3 µM; in the assay with HT29 colon, 32.3 µM. Further, the values for the TGI in the assay on LXFL 529 NSCLC, in the assay with SK-OV-3 ovarian and in the assay on NCI-H23 lung were greater than 100 µM, greater than 100 µM and 77.1 µM, respectively.
`CC(=O)Nc1ccc2c(c1)/C(=C\c1ccc([N+](C)(C)C)cc1)c1ccccc1-2`: the TGI is greater than 100 µM in the assay with UO-31 renal; 79.9 µM in the assay with HOP-92 NSCLC; greater than 100 µM in the assay with OVCAR-3 ovarian; 59.5 µM in the assay with HL-60(TB) leukemia; greater than 100 µM with OVCAR-8 ovarian; 88.3 µM with HS 578T breast. For the same compound, the TGI in the assay with HCC-2998 colon is greater than 100 µM; in the assay with A549 NSCLC it was greater than 100 µM; in the assay on EKVX NSCLC it was 78.6 µM; with ACHN renal, greater than 100 µM; in the assay on UACC-62 melanoma, greater than 100 µM; with HT29 colon it was greater than 100 µM. Moreover, the TGI is greater than 100 µM with SK-OV-3 ovarian; greater than 100 µM in the assay with BT-549 breast; greater than 100 µM in the assay with MCF7 breast; greater than 100 µM with NCI-H23 lung; greater than 100 µM in the assay on MDA-N; 74.4 µM in the assay on NCI-H226 lung.
For the compound `O=C(C=P(c1ccccc1)(c1ccccc1)c1ccccc1)c1ccc(-c2cccs2)cc1`, the TGI in the assay on SF-539 CNS turned out to be 12.4 µM; with UO-31 renal, 14.4 µM; in the assay with HOP-92 NSCLC, 11.3 µM; with OVCAR-3 ovarian, 8.52 µM; in the assay on HL-60(TB) leukemia, 4.87 µM; in the assay on OVCAR-8 ovarian it was 17.8 µM. Further, the TGI in the assay on HS 578T breast was found to be 49.4 µM; in the assay with HCC-2998 colon, 6.46 µM; in the assay on A549 NSCLC, 11.6 µM; in the assay on EKVX NSCLC it was 7.09 µM; with ACHN renal, 19.8 µM; with UACC-62 melanoma, 10.7 µM. The TGI with HT29 colon is 13.7 µM; with SK-OV-3 ovarian, 20.6 µM; in the assay with BT-549 breast, 40.7 µM; with MCF7 breast, 11.7 µM; with NCI-H23 lung, 56.2 µM; in the assay on MDA-N it was 11.7 µM. Also, in the assay with NCI-H226 lung, the TGI stood at 8.4 µM.
Take `CC(=O)Oc1ccccc1`: the TGI in the assay with SF-539 CNS, with UO-31 renal, in the assay on OVCAR-3 ovarian, in the assay on HL-60(TB) leukemia, in the assay with OVCAR-8 ovarian and with A549 NSCLC was greater than 100 µM in each case. Also, the TGI in the assay on EKVX NSCLC, with ACHN renal, in the assay with UACC-62 melanoma, with HT29 colon, with LXFL 529 NSCLC and in the assay on NCI-H23 lung was greater than 100 µM each time. The TGI in the assay on NCI-H226 lung was greater than 100 µM.
